Literature values in patent US20140186466A1, “NEUTRACEUTICAL FORMULATION FOR TREATMENT OF DIABETES” (Creative Medical Health Inc., priority 2012, published 2014).
Where two headings read alike, the source gives them in different places.

Legend:
[1] = tested on: patients with diabetes; conditions: 2000 IU/daily for 18 months
[2] = target: dipeptidyl peptidase-IV (Homo sapiens, UniProt P27487)
[3] = in vivo
[4] = tested on: Streptozotocin-induced diabetic animals; conditions: 4 weeks
[5] = tested on: inflammatory pathways involved in diabetic nephropathy; conditions: rat model; 22 micrograms in water for 12 weeks (8 mcg/day)
[6] = tested on: ischemia-reperfusion insult in rats; conditions: 10 mg chromium/kg diet for six weeks
[7] = tested on: diabetic rats
[8] = tested on: HIV-positive subjects; conditions: 1000 µg/day, eight weeks
[9] = tested on: diabetic rats; conditions: 100 mg/kg, 60 days
[10] = tested on: patients with hypertension; conditions: 60 patients with hypertension; 20 mmol/d, 8 weeks
[11] = tested on: skin microvasculature of diabetic rats; conditions: streptozotocin-diabetic male Wistar rats; 10 g/l in drinking water
[12] = tested on: streptozotocin diabetic rats; conditions: 10 g/l in drinking water, eight weeks
[13] = tested on: mesenteric vascular bed; conditions: STZ diabetic rats; 10 g/L in drinking water, 8 weeks; intact and denuded endothelium
[14] = tested on: tissue uptake of glucose; conditions: healthy patients and patients with type 2 diabetes
[15] = tested on: patients with diabetes; conditions: 500 mg or 1000 mg three times a day, 52 weeks
[16] = tested on: diabetic rat brains; conditions: 0.6 mg/mL in drinking water, 4 weeks
[17] = tested on: patients with type 2 diabetes; conditions: 57 patients, 300 mg daily or placebo, eight weeks
[18] = tested on: type 1 diabetic patients; conditions: 51 type 1 diabetic patients; 600 mg once daily, 5 weeks
[19] = tested on: peripheral neuropathy; conditions: intravenously 600 mg/day over 3 weeks
[20] = diabetic rats, 1 mg/kg body weight

Sequence of dipeptidyl peptidase-IV (P27487 whole entry, species assumed): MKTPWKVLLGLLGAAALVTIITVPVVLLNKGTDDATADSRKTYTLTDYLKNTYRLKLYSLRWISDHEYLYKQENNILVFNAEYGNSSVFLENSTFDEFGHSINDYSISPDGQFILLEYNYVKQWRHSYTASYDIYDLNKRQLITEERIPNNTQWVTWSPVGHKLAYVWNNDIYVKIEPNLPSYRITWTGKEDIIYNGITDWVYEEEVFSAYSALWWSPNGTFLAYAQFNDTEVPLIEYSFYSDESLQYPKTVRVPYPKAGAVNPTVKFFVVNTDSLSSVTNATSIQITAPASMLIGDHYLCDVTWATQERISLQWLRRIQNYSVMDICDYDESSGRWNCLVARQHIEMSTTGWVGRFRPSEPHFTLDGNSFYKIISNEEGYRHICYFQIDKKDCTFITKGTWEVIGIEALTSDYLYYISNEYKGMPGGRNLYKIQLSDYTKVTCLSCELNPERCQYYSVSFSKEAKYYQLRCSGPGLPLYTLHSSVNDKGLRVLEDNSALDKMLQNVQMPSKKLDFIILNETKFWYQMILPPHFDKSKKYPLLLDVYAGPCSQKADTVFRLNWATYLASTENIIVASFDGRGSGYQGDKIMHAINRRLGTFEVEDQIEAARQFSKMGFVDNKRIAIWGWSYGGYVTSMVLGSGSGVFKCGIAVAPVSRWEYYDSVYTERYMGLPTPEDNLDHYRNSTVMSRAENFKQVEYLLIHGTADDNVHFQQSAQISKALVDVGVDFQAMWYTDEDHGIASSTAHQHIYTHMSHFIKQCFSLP

C=C1CC[C@H](O)C/C1=C/C=C1\CCC[C@]2(C)[C@@H]([C@H](C)CCCC(C)C)CC[C@@H]12 [Vitamin D3]
serum lipid profiles [1]: beneficial effects

CN(C)C(=N)N=C(N)N [metformin, Metformin]
dipeptidyl peptidase-IV activity [2]: inhibition | glucose utilization [3]: increased | leptin concentrations [3]: reduction

chromium picolinate
plasma glucose levels ([4]; 1 mg/kg body weight daily): lowered | weight loss in diabetic animals ([4]; 1 mg/kg body weight daily): increased | glycogen content in the livers ([4]; 1 mg/kg body weight daily, to near control levels): normalized | action of insulin [4, 20]: potentiate | plasma cholesterol levels [4, 20]: lower | plasma triglyceride levels [4, 20]: lower | activity of inflammatory pathways involved in diabetic nephropathy [5]: reducing the activity | myocardial contractility and relaxation following ischemia-reperfusion insult [6]: recovery | elevated hepatic and cerebral free fatty acids and malondialdehyde ([7]; high dose 13.20 μg Cr kg(−1) day(−1), relative to control (non-diabetic) levels): nearly normalized | elevated hepatic and cerebral free fatty acids and malondialdehyde ([7]; low (human equivalent) dose 2.90 μg Cr kg(−1) day(−1)): significantly reduced | mean rate of glucose disposal after treatment ([8]; eight HIV-positive subjects on antiretroviral therapy, before 4.41, range 3.19-12.78, p=0.03): 6.51 mg/kg LBM/min | increase of mean rate of glucose disposal ([8]; eight HIV-positive subjects): 25%

O=S(=O)([O-])[O-].[O]=[V+2] [vanadyl sulfate]
blood glucose levels [9]: lower | serum antioxidant enzyme levels in muscle tissue [9]: decrease

[O]=[Mg] [magnesium oxide]
ambulatory BP reduction, first value of the pair [10]: 2.5 mm Hg | ambulatory BP reduction, second value of the pair [10]: 1.4 mm Hg | home BP decrease, first value of the pair [10]: 2.0 mm Hg | home BP decrease, second value of the pair [10]: 1.4 mm Hg | office BP fall, first value of the pair [10]: 3.7 mm Hg | office BP fall, second value of the pair [10]: 1.7 mm Hg

O=S(=O)([O-])[O-].[Mg+2] [magnesium sulfate]
endothelial relaxation stimulated with acetylcholine (Ach) or sodium nitroprusside (SNP) [11]: enhanced | plasma glucose ([12]; STZ 40 mg/kg i.v. diabetic rats): to normal levels | high density lipoprotein (HDL) ([12]; STZ diabetic rats): to normal levels | low density lipoprotein (LDL) ([12]; STZ diabetic rats): to normal levels | mesenteric fat/body weight ratio ([12]; STZ diabetic rats): reductions | systolic blood pressure ([12]; STZ diabetic rats): to normal levels | total cholesterol ([12]; STZ diabetic rats): to normal levels | triglyceride ([12]; STZ diabetic rats): to normal levels | very low density lipoprotein (VLDL) ([12]; STZ diabetic rats): to normal levels | mean perfusion pressure of mesenteric vascular bed [13]: decrease

CC(=O)O[C@H](CC(=O)[O-])C[N+](C)(C)C [acetyl-L-carnitine]
tissue uptake of glucose [14]: dose-dependent effects | nerve fiber regeneration [15]: improvements | neuropathic pain [15]: symptomatic relief

[Na+].[Na+].[Na+].[O]=[V]([O-])([O-])[O-] [sodium orthovanadate]
ischemic injury in diabetic rat brains [16]: significantly reduced | neurobehavioral function [16]: improved

O=C(O)CCCCC1CCSS1 (stereo not drawn) [alpha lipoic acid]
fasting blood glucose levels [17]: reduced | measures of platelet reactivity [18]: reduced | neuropathic pain [19]: clinically relevant reduction
